Source: US11214561B2, “Histone methyltransferase EZH2 inhibitor, preparation method and pharmaceutical use thereof” (ANCUREALL PHARMACEUTICAL (SHANGHAI) CO., LTD., priority 2017, dated 2022)

Key:
SU-DHL-8 (EZH2 WT) = test: In vitro 50% growth inhibition (GI50), MTT/CCK8, SU-DHL-8 cells; assay type: cell-based; details: Homo sapiens, SU-DHL-8, 144 h; Drug treatment for 6 days
From the text: (§1) In the present invention, a representative tumor cell line was selected to determine the cell growth inhibition activity of the present compound. Cell culture conditions and methods were in accordance with the requirements for each cell lines. The cells were subcultured in vitro for less than 3 generations each time, and as required, monoclone purification and identification of cell lines could be carried out.
(§2) The cell culture media used were RPMI1640 (Gibco) comprising 5-20% of fetal bovine serum (Gibco), 1% of double-antibiotic and 2 mM of glutamine.
(§3) Suspension culture cells were collected by centrifugation (1700 rpm, 3 minutes), and the supernatant was discarded and the cells were counted. According to each cell growth cycle, different concentrations of cells were prepared (1-10×10^4 cells per ml) and added to 96-well plates (Corning) with 100 μl per well, and then incubated overnight at 37° C., 5% CO2. The next day, the test compound was added to the cultured cells (2 wells in parallel). The final concentration of the solvent was less than 1/1,000. The cells were further cultured for 6 to 12 days and assayed by MTT.
(§4) The compound was stored at a concentration of 10 mM at −20° C. and diluted to two-fold or 10-fold series prior to use.
(§5) For the suspension culture cells, CCK8 was directly added to 10% of the final concentration. The cells were continually incubated for […].
(§6) The experiments were repeated 3 times and a statistical analysis of data was conducted.

Karpas-422 (EZH2 Y641N) = test: In vitro 50% growth inhibition (GI50), MTT/CCK8, Karpas-422 cells; assay type: cell-based; details: Homo sapiens, KARPAS-422, 144 h; Drug treatment for 6 days
From the text: as §1, §2, §3, §4, §5, §6

Pfeiffer (EZH2 A677G) = test: In vitro 50% growth inhibition (GI50), MTT/CCK8, Pfeiffer cells; assay type: cell-based, Human; details: for GI50: Homo sapiens, Pfeiffer, 240 h, Drug treatment for 10 days; for growth inhibitory activity / GI50 level against Pfeiffer, in words: EZH2 A677G mutant cells Pfeiffer
From the text: as §1, §2, §3, §4, §5, §6

Row | SMILES | GI50 (SU-DHL-8 (EZH2 WT)) [nM] | GI50 (Karpas-422 (EZH2 Y641N)) [nM] | GI50 (Pfeiffer (EZH2 A677G)) [nM] | growth inhibitory activity / GI50 level against Pfeiffer, in words (Pfeiffer (EZH2 A677G))
1 | C=CC(=O)N1CCC(N(CC)c2cc(Br)cc(C(=O)NCc3c(C)cc(C)[nH]c3=O)c2C)C1 (centres unmarked) [Example 1, 3-[(1-acryloyl-pyrrolidin-3-yl)-ethyl-amino]-5-bromo-N-(4,6-dimethyl-2-oxo-1,2-dihydro-pyridin-3-ylmethyl)-2-methyl-benzamide] | > 1000 | 10 to 100 | 1 to 10 | 
2 | C=CC(=O)N1CCC(N(CC)c2cc(-c3ccc(N4CCOCC4)nc3)cc(C(=O)NCc3c(C)cc(C)[nH]c3=O)c2C)C1 (centres unmarked) [Example 52, N-(4,6-dimethyl-2-oxo-1,2-dihydro-pyridin-3-ylmethyl)-3-[(1-acryloyl-pyrrolidin-3-yl)-ethyl-amino]-2-methyl-5-[6-(morpholin-4-yl)-pyridin-3-yl]-benzamide] | > 1000 | 10 to 100 | 1 to 10 | 
3 | C=CC(=O)N1CCC(N(CC)c2cc(-c3ccc(CN4CCC(OCC)CC4)cc3)cc(C(=O)NCc3c(C)cc(C)[nH]c3=O)c2C)CC1 [Example 88, N-(4,6-dimethyl-2-oxo-1,2-dihydro-pyridin-3-ylmethyl)-5-[(1-acryloyl-piperidin-4-yl)-ethyl-amino]-4-methyl-4′-(4-ethoxypiperidin-1-ylmethyl)-[1,1′-biphenyl]-3-carboxamide] | > 1000 | 10 to 100 | < 1 | subnanomolar level
4 | C=CC(=O)N1CCC(N(CC)c2cc(-c3ccc(OCCN4CCOCC4)cc3)cc(C(=O)NCc3c(C)cc(C)[nH]c3=O)c2C)C1 (centres unmarked) [Example 48, N-(4,6-dimethyl-2-oxo-1,2-dihydro-pyridin-3-ylmethyl)-5-[(1-acryloyl-pyrrolidin-3-yl)-ethyl-amino]-4-methyl-4′-[2-(morpholin-4-yl)-ethoxy]-[1,1′-biphenyl]-3-carboxamide] | > 1000 | 100 to 1000 | 10 to 100 | 
5 | C=CC(=O)N1CCC(N(CC)c2cc(-c3ccc(CN4CCOCC4)cc3)cc(C(=O)NCc3c(C)cc(C)[nH]c3=O)c2C)C1 (centres unmarked) [Example 20, N-(4,6-dimethyl-2-oxo-1,2-dihydro-pyridin-3-ylmethyl)-5-[(1-acryloyl-pyrrolidin-3-yl)-ethyl-amino]-4′-(morpholin-4-ylmethyl)-4-methyl-biphenyl-3-carboxamide] | > 1000 | 100 to 1000 | 1 to 10 | 
6 | C=CC(=O)N1CCC(N(CC)c2cc(-c3ccc(N4CCOCC4)cc3)cc(C(=O)NCc3c(C)cc(C)[nH]c3=O)c2C)C1 (centres unmarked) [Example 24, N-(4,6-dimethyl-2-oxo-1,2-dihydro-pyridin-3-ylmethyl)-5-[(1-acryloyl-pyrrolidin-3-yl)-ethyl-amino]-4′-(morpholin-4-yl)-4-methyl-biphenyl-3-carboxamide] | > 1000 | 100 to 1000 | 1 to 10 | 
7 | C=CC(=O)N1CCC(N(CC)c2cc(OC)cc(C(=O)NCc3c(C)cc(C)[nH]c3=O)c2C)C1 (centres unmarked) [Example 16, 3-[(1-acryloyl-pyrrolidin-3-yl)-ethyl-amino]-5-methoxy-N-(4,6-dimethyl-2-oxo-1,2-dihydrogen-pyridin-3-ylmethyl)-2methyl-benzamide] | > 1000 | 100 to 1000 | 10 to 100 | 
8 | C=CC(=O)N1CCC(N(CC)c2cc(-c3ccc(CN4CCC(N5CCOCC5)CC4)cc3)cc(C(=O)NCc3c(C)cc(C)[nH]c3=O)c2C)CC1 [Example 81] | > 1000 | 10 to 100 | 1 to 10 | 
9 | C=CC(=O)N1CCC(N(CC)c2cc(-c3ccc(CN4CCN(C5CCOCC5)CC4)cc3)cc(C(=O)NCc3c(C)cc(C)[nH]c3=O)c2C)CC1 [Example 89, N-(4,6-dimethyl-2-oxo-1,2-dihydro-pyridin-3-ylmethyl)-5-[(1-acryloyl-piperidin-4-yl)-ethyl-amino]-4-methyl-4′-[4-(tetrahydropyran-4-yl)-piperazin-1-ylmethyl]-[1,1′-biphenyl]-3-carboxamide] | > 1000 | 10 to 100 | < 1 | subnanomolar level
